Measured values from patent publication US9289412B2, “Role of limonoid compounds as neuroprotective agents” (The Johns Hopkins University, priority 2006, dated 2016).
Like-named read-outs stand apart in the source and are kept apart here.

Legend:
[1] = test system: rat mixed hippocampal cultures; experiment: 3-NP neurotoxicity assay, MTT viability, rat mixed hippocampal cultures; format: cell-based; settings: for protection against 3-NP (FIG. 5): 3 mM 3-NP, approximate values; for inhibition at 10 µM: Rattus norvegicus
Description: For example, a cell viability assay can be used in a preliminary screen on a large series of compounds each of which is tested at a fixed concentration. In some embodiments, mixed hippocampal cell cultures are prepared as described in, e.g., Haughey et al. (1999), J Neurochem, 73(4):1363-1374, and Haughey et al (2004), J Neurosci, 24(1):257-268. Subsequently, the cultures are pretreated for one hour in the presence of a candidate neuroprotective agent and then incubated with a cytotoxic agent for about 18 hours. Examples of cytotoxic agents include, but are not limited to, oxidative stressors (e.g., 3-nitropropionic acid (3-NP) or H2O2), excitatory amino acids (e.g., kainate), or neurotoxic proteins (e.g., Hiv Tat, or Aβ peptides). […] The level of protection (“percent protection”) provided by the test compound at a given test concentration in vitro can be expressed as: […]
A variety of methods for determining cell viability may be used. In some embodiments, cell viability is assessed based on the “MTT” assay method described in Mosmann (1983), J Immunol Methods, 65(1-2):55-63, or a variant thereof. This assay is based on the ability of a mitochondrial dehydrogenase enzyme from viable cells to cleave the tetrazolium rings of the pale yellow MTT and form dark blue formazan crystals, which are trapped in cells and readily quantified by ELISA spectrophotometry.
(§1) We sought to evaluate the protective efficacy of a number of modified terpenoid compounds against the against many different neurotoxins, ranging from the chemotoxic 6-OHDA, NMDA, 3-nitropropionic acid (3-NP), and viral proteins such as Tat and gp120. Thus, we established an in vitro neuroprotection assay using rat mixed hippocampal cultures, in which we evaluated the protective efficacy of neuroprotective compounds disclosed herein. The oxidative stressor 3-NP was used to elicit toxicity in the rat hippocampal cultures to mimic the oxidative damage, reactive oxygen species production and ensuing neurodegeneration resulting from HIV infection. Another measure of neurotoxicity which results from HIV infection was evaluated by exposure of the hippocampal cultures to HIV-1 Tat (Li et al (2005), Neurotox Res, 8(1-2): 119-134).
(§2) Rat mixed hippocamal neuronal cultures were generated from freshly dissected rat hippocampi (embryonic day 18) in neurobasal media containing 5% fetal bovine serum and 2% B27 supplement. The cells were plated into 96 well plates at a density of 4×10^5 cells/mL and routinely used on days 11-14 following culturing. Cell viability was assessed with MTT [3-(4,5-dimethylthiazol-2-yl)-2,5-diphenyltetrazolium bromide] assay. The MTT assay is based on the ability of a mitochondrial dehydrogenase enzyme from viable cells to cleave the tetrazolium rings of the pale yellow MTT and form dark blue formazan crystals. See Mosmann (1983), J Immunol Methods, 65(1-2):55-63. These crystals are largely impermeable to cell membranes, and thus accumulate within healthy cells. The resultant formazan precipitates are solubilized with DMSO and read on a multiwell scanning spectrophotometer (ELISA reader). The number of surviving cells is directly proportional to the level of the formazan product created.
Mixed hippocampal cultures were incubated with 3-NP (0.5-10 mM) for 18 hours and then assessed for viability using an MTT assay.
(§3) Cultures were preincubated with GPI 1046 or Resveratrol for one hour prior to an 18 hour exposure to 3 mM 3-NP. […] The same neuroprotective compounds were evaluated for efficacy against HIV-1 Tat protein toxicity using the same 1 hour preincubation protocol.

[2] = test system: hippocampal cultures (HIV-1 Tat toxicity); experiment: HIV-1 Tat toxicity assay, MTT viability, mixed hippocampal cultures; format: cell-based, rat; settings: Tat 500 nM; for dose dependence of protection from HIV-1 Tat toxicity (FIG. 7): range of concentrations up to 10 μM
Description: as §1, §2, §3

[3] = test system: rat mixed hippocampal cultures; experiment: Titration of 3-NP for neurotoxic effects, MTT viability; format: cell-based; settings: 3 mM 3-NP, 18 hours
Description: FIG. 3 is a bar graph showing the effect of a series of 3-nitropropionic acid (3-NP) concentrations (0.5-10 mM) on survival of mixed hippocampal cell cultures in a [3-(4,5-dimethylthiazol-2-yl)-2,5-diphenyl tetrazolium bromide] (MTT) viability assay. Absorbance at 595 nm (corresponding to the absorbance of the reduced MTT formazan product) is directly proportional to cell viability.

[4] = test system: human fetal neuronal cultures; experiment: 3-NP toxicity, MTT viability, human fetal neuron cultures; format: cell-based; settings: 3-NP 3 mM; Limonin 0.1-10 μM
Description: (§4) FIG. 9 is a set of bar graphs showing the results of an MTT viability assay of human fetal neuron cultures in which the effect of (A) 3-NP (3 mM) or (B) 6-OHDA (100 μM) is tested alone or in the presence of a range of concentrations of Limonin (0.1-10 μM).
(§5) Finally, we sought to determine if the compounds tested in rat neuronal cultures would also be effective on cultured human fetal neurons.

[5] = test system: mixed hippocampal cell cultures (6-OHDA neurotoxicity); experiment: 6-OHDA neurotoxicity, MTT viability, mixed hippocampal cultures; format: cell-based, rat; settings: 6-OHDA 100 μM
Description: (§6) FIG. 8 is a set of bar graphs showing the results of an MTT viability assay of mixed hippocampal cell cultures in which the effect of (A) NMDA (100 μM) or (B) 6-OHDA (100 μM) is tested alone or in the presence of a range of concentrations of Limonin (0.1-10 μM).
(§7) We also tested the ability of Limonin to protect against N-methyl-D-Aspartic Acid (NMDA) excitotoxicity, and 6-Hydroxydopamine (6-0HDA), a dopaminergic neurotoxin.

[6] = test system: mixed hippocampal cell cultures (NMDA excitotoxicity); experiment: NMDA excitotoxicity, MTT viability, mixed hippocampal cultures; format: cell-based, rat; settings: NMDA 100 μM
Description: as §6, §7

[7] = test system: human fetal neuronal cultures; experiment: 6-OHDA toxicity, MTT viability, human fetal neuron cultures; format: cell-based; settings: 6-OHDA 100 μM; Limonin 0.1-10 μM
Description: as §4, §5

[8] = Table 2, vs 3 mM 3-NP 18 h, 1 h preincubation, test concentration (10 μM)
[9] = Table 3, 3 mM 3-NP 18 h, 1 h preincubation, test concentration (10 μM), read-out: % Protection vs 3-NP

Compound: CCC(C)(C)C(=O)C(=O)N1CCC[C@H]1C(=O)OCCCc1cccnc1 [GPI 1046, reference compound]
- protection from oxidative damage elicited by 3-NP, in words (FIG. 4A) ([1]; 3 mM 3-NP 18 h, 1 h preincubation, GPI 1046 1 μM, Resveratrol 25 μM): significantly protected
- protection from HIV-1 Tat toxicity, in words (FIG. 4B) ([2]; 1 h preincubation, GPI 1046 10 μM, Resveratrol 10 μM): protected hippocampal neurons from Tat toxicity

Compound: O=C(O)CC[N+](=O)[O-] [Compound 3-NP, 3-nitropropionic acid]
- cytotoxicity induced [3]: 25-35%

Compound: CC1(C)O[C@H]2CC(=O)OC[C@]23[C@H]2CC[C@@]4(C)[C@H](c5ccoc5)OC(=O)[C@H]5O[C@]54[C@]2(C)C(=O)C[C@@H]13 [Limonin]
- protection of human fetal neuronal cultures against 3-NP (FIG. 9A) [4]: dose-dependently protected
- dose dependence of protection from HIV-1 Tat toxicity (FIG. 7) [2]: dose dependently protected
- protection against 6-OHDA at highest dose ([5]; Limonin 10 μM): complete protection
- dose dependence of block of 6-OHDA neurotoxicity (FIG. 8B) ([5]; Limonin 0.1-10 μM): dose-dependently blocked the neurotoxicity
- protection against NMDA at highest dose ([6]; Limonin 10 μM): complete protection
- dose dependence of block of NMDA neurotoxicity (FIG. 8A) ([6]; Limonin 0.1-10 μM): dose-dependently blocked the neurotoxicity
- protection of human fetal neuronal cultures against 6-OHDA (FIG. 9B) [7]: dose-dependently protected

Compound: CC(=O)O[C@@H]1CC2C(C)(C)C(=O)C=C[C@]2(C)C2CC[C@@]3(C)[C@H](c4ccoc4)OC(=O)[C@H]4O[C@]43[C@@]21C (stereo partly drawn) [GEDUNIN]
- protection against 3-NP (FIG. 5) [1]: about 50%
- inhibition at 10 µM ([1]; Table 2, vs 3 mM 3-NP 18 h, 1 h preincubation, test concentration (10 μM), read-out: % Protection): 40%
- neuroprotection from HIV-1 Tat toxicity, in words ([2]; 1-10 μM compound): nearly complete neuroprotection
- dose dependence of protection from HIV-1 Tat toxicity (FIG. 7) [2]: dose dependently protected

Compound: CC(=O)O[C@@H]1CC2C(C)(C)[C@H](O)C=C[C@]2(C)C2CC[C@@]3(C)[C@H](c4ccoc4)OC(=O)C4OC43[C@@]21C (stereo partly drawn) [GEDUNOL]
- % Protection [1, 8]: 45%

Compound: CC(=O)OC1CC2C(C)(C)CCC(=O)[C@]2(C)C2CC[C@@]3(C)[C@H](c4ccoc4)OC(=O)C4OC43[C@]12C (stereo partly drawn) [2,3-DIHYDROISOGEDUNIN]
- % Protection [1, 8]: 44%

Compound: COC(=O)C[C@H]1C(C)(C)C(=O)[C@@H]2CC3=C(CC[C@]4(C)C3=CC(=O)O[C@H]4c3ccoc3)[C@@]1(C)C2=O [CARAPIN-8(9)-ENE]
- % Protection vs 3-NP ([1]; Table 3, 3 mM 3-NP 18 h, 1 h preincubation, test concentration (10 μM)): 38%

Compound: CC(=O)O[C@@H]1CC2C(C)(C)C(=O)C=C[C@]2(C)C2CC[C@@]3(C)C(=CC(=O)O[C@@H]3c3ccoc3)[C@@]21C (stereo partly drawn) [DEOXYGEDUNIN]
- inhibition at 10 µM [1, 9]: 23%
- % Protection [1, 8]: 23%

Compound: CC(=O)O[C@H]1C[C@@H](OC(C)=O)C(C)(C)C2C[C@@H](O)[C@]3(C)C(CC[C@@]4(C)[C@H](c5ccoc5)OC(=O)[C@H]5O[C@]543)[C@]21C (stereo partly drawn) [7-DEACETYLKHIVORIN]
- inhibition at 10 µM [1, 9]: 32%
- % Protection [1, 8]: 32%

Compound: COC(=O)C[C@H]1C(C)(C)[C@@H](OC(C)=O)[C@@H]2CC3=C4CC(=O)O[C@@H](c5ccoc5)[C@]4(C)CC[C@@H]3[C@@]1(C)C2=O [FISSINOLIDE]
- inhibition at 10 µM [1, 9]: 28%

Compound: C[C@@H]([C@H]1OC(C)(C)[C@@H](O)[C@H]1O)[C@@H]1CC[C@]2(C)C3=CC[C@H]4C(C)(C)C(=O)CC[C@]4(C)[C@H]3CC[C@@]12C [odoratone]
- protection against 3-NP (FIG. 5) [1]: 60-70%

Compound: COC1=C[C@@H](C)[C@@H]2C[C@H]3OC(=O)C[C@H]4C(C)=C(OC)C(=O)[C@H]([C@@]2(C)C1=O)[C@@]34C [QUASSIN]
- inhibition at 10 µM [1, 9]: 8%
